Assays:
[1] = tested on: swelling, pain, TNF-alpha; assay: biological activity assays of FIGS. 1-4 (swelling, pain, TNF-alpha, weight bearing); format: in vivo, mice; settings: summary of FIGS. 1-4; varied doses, compared to CBD/CBG
Procedure: After an additional 90 minutes, the mice were decapitated, and trunk blood was collected for determination of TNF-α levels. […]
TNF-α determination assay: TNF-α (pg/ml) in cell culture supernatants or in mouse blood plasma was determined by the “sandwich” ELISA technique. ELISA reagents were used according to the manufacturer's protocol (R & D Systems).

[2] = tested on: phenylbenzoquinone writhing; settings: mice; versus aspirin; cited from earlier work
[3] = target: cannabinoid receptor CB2 (Homo sapiens, UniProt P34972); settings: cited from earlier work
Sequence of cannabinoid receptor CB2 (P34972 whole entry): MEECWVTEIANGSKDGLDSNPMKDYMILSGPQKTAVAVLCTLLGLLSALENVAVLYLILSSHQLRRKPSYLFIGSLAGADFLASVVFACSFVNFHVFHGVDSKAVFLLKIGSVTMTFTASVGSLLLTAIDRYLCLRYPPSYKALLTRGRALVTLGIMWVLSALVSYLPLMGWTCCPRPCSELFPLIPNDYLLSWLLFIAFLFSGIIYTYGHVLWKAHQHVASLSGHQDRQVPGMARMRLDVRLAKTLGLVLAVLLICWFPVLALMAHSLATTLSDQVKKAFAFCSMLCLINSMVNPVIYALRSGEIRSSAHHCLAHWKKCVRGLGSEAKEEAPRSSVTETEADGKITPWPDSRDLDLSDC

[4] = tested on: TPA induced erythema of mouse ear; settings: application of a 100 pg/ml solution; cited from earlier work

CCCCCc1cc(O)c([C@@H]2C=C(C)CC[C@H]2C(C)C)c(O)c1C [HUM-217, (1′S,2′S)-2′-isopropyl-3,5′-dimethyl-4-pentyl-1′,2′,3′,4′-tetrahydro-[1,1′-biphenyl]-2,6-diol]
anti-inflammatory activity [1]: notable anti-inflammatory activity

CCCCCc1cc(O)c(C/C=C(\C)CCC=C(C)C)c(O)c1C [HUM-218, (E)-2-(3,7-dimethylocta-2,6-dien-1-yl)-4-methyl-5-pentylbenzene-1,3-diol]
anti-inflammatory activity [1]: notable anti-inflammatory activity

C=C(C)[C@@H]1CCC(C)=C[C@H]1c1c(O)cc(CCCCC)c(C)c1O [HUM-216, (1′R,2′R)-3,5′-dimethyl-4-pentyl-2′-(prop-1-en-2-yl)-1′,2′,3′,4′-tetrahydro-[1,1′-biphenyl]-2,6-diol]
anti-inflammatory activity [1]: notable anti-inflammatory activity

CCCCCCC(C)(C)c1cc(O)c(C/C=C(\C)CCC=C(C)C)c(OC)c1 [HUM-223, (E)-2-(3,7-dimethylocta-2,6-dien-1-yl)-3-methoxy-5-(2-methyloctan-2-yl)phenol]
anti-inflammatory activity [1]: notable anti-inflammatory activity

C=C(C)[C@@H]1CCC(C)=C[C@H]1c1c(O)cc(CCCCC)cc1O [CBD, Cannabidiol]
analgesic potency compared to aspirin [2]: much more potent than aspirin
binding to CB2 [3]: does not bind
inhibition of the inflammation response [4]: 92%

Reference: patent US20240116883A1, “CANNABINOID DERIVATIVES AND THEIR USE THE TREATMENT OF INFLAMMATION AND/OR PAIN AND/OR OBESITY” (Yissum Research Development Company of The Hebrew …, priority 2020, published 2024)
